# What was measured:
# Type in all cases: cell-based
# [1] = tested on: Proteus vulgaris IFO 3167; test: MIC, antibacterial spectrum (aerobic bacteria); settings: Proteus vulgaris, IFO3167
# [2] = tested on: Staphylococcus aureus 209 P; test: MIC, antibacterial spectrum (aerobic bacteria); settings: Staphylococcus aureus, 209P
# [3] = tested on: E. coli ML 4707; test: MIC, antibacterial spectrum (aerobic bacteria); settings: Escherichia coli, ML4707
# [4] = tested on: P. aeruginosa IFO 12689; test: MIC, antibacterial spectrum (aerobic bacteria); settings: Pseudomonas aeruginosa, IFO12689
# [5] = tested on: S. epidermidis IID 866; test: MIC, antibacterial spectrum (aerobic bacteria); settings: Staphylococcus epidermidis, IID866
# [6] = tested on: Bacillus subtilis PCI 219; test: MIC, antibacterial spectrum (aerobic bacteria); settings: Bacillus subtilis, PCI219
# [7] = tested on: Yersinia enterocolitica IID 981; test: MIC, antibacterial spectrum (aerobic bacteria); settings: Yersinia enterocolitica, IID981
# [8] = tested on: Serratia marcescens IID 618; test: MIC, antibacterial spectrum (aerobic bacteria); settings: Serratia marcescens, IID618
# [9] = tested on: C. ramosum; test: MIC, antibacterial spectrum (anaerobic bacteria); settings: Thomasclavelia ramosa
# [10] = tested on: Shigella sonnei IID 969; test: MIC, antibacterial spectrum (aerobic bacteria); settings: IID969, Shigella sonnei IID 969, Gram -, 10^6 cells/ml
# Experimental: Minimal inhibitory concentrations (MICs) were determined in accordance with the method recommended by Japan Society of Chemotherapy.
# [11] = tested on: Fusobacterium necrophorum S-45; test: MIC, antibacterial spectrum (anaerobic bacteria); settings: Fusobacterium necrophorum, S45
# [12] = tested on: B. fragilis 25285; test: MIC, antibacterial spectrum (anaerobic bacteria); settings: Bacteroides fragilis, 25285
# [13] = tested on: S. pyogenes IID 689 (S-8); test: MIC, antibacterial spectrum (aerobic bacteria); settings: Streptococcus pyogenes, IID689
# [14] = tested on: Propionibacterium acens 11828; test: MIC, antibacterial spectrum (anaerobic bacteria); settings: Propionibacterium, 11828
# [15] = tested on: B. thetaiotaomicron (0661); test: MIC, antibacterial spectrum (anaerobic bacteria); settings: Bacteroides thetaiotaomicron
# [16] = tested on: K. pneumoniae 1-220S; test: MIC, antibacterial spectrum (aerobic bacteria); settings: Klebsiella pneumoniae, 1220S
# [17] = tested on: P. aeruginosa IID 1210; test: MIC, antibacterial spectrum (aerobic bacteria); settings: Pseudomonas aeruginosa, IID1210
# [18] = tested on: Bacteroides fragilis GM 7000; test: MIC, antibacterial spectrum (anaerobic bacteria); settings: Bacteroides fragilis, GM7000
# [19] = tested on: Peptococcus magnus KY 017; test: MIC, antibacterial spectrum (anaerobic bacteria); settings: Finegoldia magna, KY017
# [20] = tested on: Eubacterium lentum GAI 5242; test: MIC, antibacterial spectrum (anaerobic bacteria); settings: Eggerthella lenta, GAI5242
# [21] = tested on: Alcaligenes faecalis 0114002; test: MIC, antibacterial spectrum (aerobic bacteria); settings: Alcaligenes faecalis 0114002, Gram -, 10^6 cells/ml
# [22] = tested on: P. mirabilis IID 994; test: MIC, antibacterial spectrum (aerobic bacteria); settings: Proteus mirabilis, IID994
# [23] = tested on: Peptostreptococcus anaerobius KYA 27337; test: MIC, antibacterial spectrum (anaerobic bacteria); settings: Peptostreptococcus anaerobius, KYA27337
# [24] = tested on: E. coli ATCC 10536; test: MIC, antibacterial spectrum (aerobic bacteria); settings: Escherichia coli, ATCC10536
# [25] = tested on: Klebsiella pneumoniae KY(GN)6445; test: MIC, antibacterial spectrum (aerobic bacteria); settings: Klebsiella pneumoniae
# [26] = tested on: P. cepacia GIFU 518; test: MIC, antibacterial spectrum (aerobic bacteria); settings: Burkholderia cepacia, GIFU518
# [27] = tested on: S. aureus Smith; test: MIC, antibacterial spectrum (aerobic bacteria); settings: Staphylococcus aureus
# [28] = tested on: B. fragilis 0558; test: MIC, antibacterial spectrum (anaerobic bacteria); settings: Bacteroides fragilis, 0558
# [29] = tested on: Escherichia coli NIHJ JC-2; test: MIC, antibacterial spectrum (aerobic bacteria); settings: NIHJJC2, Escherichia coli NIHJ JC-2, Gram -, 10^6 cells/ml
# [30] = tested on: S. aureus IID 670 (Terajima); test: MIC, antibacterial spectrum (aerobic bacteria); settings: Staphylococcus aureus, IID670
# [31] = tested on: S. marcescens GN 7577; test: MIC, antibacterial spectrum (aerobic bacteria); settings: Serratia marcescens, GN7577
# [32] = tested on: Pseudomonas aeruginosa V-1; test: MIC, antibacterial spectrum (aerobic bacteria); settings: Pseudomonas aeruginosa, V1
# [33] = tested on: Streptococcus pneumoniae IID 552; test: MIC, antibacterial spectrum (aerobic bacteria); settings: Streptococcus pneumoniae, IID552
# [34] = tested on: Veillonella parvula KYA 10790; test: MIC, antibacterial spectrum (anaerobic bacteria); settings: KYA10790, Veillonella parvula KYA 10790, Gram -, 10^6 cells/ml
# [35] = tested on: Salmonella enteritidis IID 604; test: MIC, antibacterial spectrum (aerobic bacteria); settings: Salmonella enterica
# [36] = tested on: Pst. micros UPI 5464-1; test: MIC, antibacterial spectrum (anaerobic bacteria); settings: Parvimonas micra, UPI54641, Pst. micros UPI 5464-1, Gram +, 10^6 cells/ml
# [37] = tested on: Citrobacter freundii IID 976; test: MIC, antibacterial spectrum (aerobic bacteria); settings: Citrobacter freundii, IID976
# [38] = tested on: Acinetobacter anitratus IID 876; test: MIC, antibacterial spectrum (aerobic bacteria); settings: Acinetobacter calcoaceticus, IID876
# [39] = tested on: P. maltophilia GIFU 2491; test: MIC, antibacterial spectrum (aerobic bacteria); settings: Stenotrophomonas maltophilia, GIFU2491
# [40] = tested on: C. perfringens KYA 13123; test: microbe, parasite or virus in culture; settings: Clostridium perfringens, KYA13123
# [41] = tested on: E. faecalis IID 682; test: MIC, antibacterial spectrum (aerobic bacteria); settings: Enterococcus faecalis, IID682
# [42] = tested on: B. distasonis 8503; test: MIC, antibacterial spectrum (anaerobic bacteria); settings: Parabacteroides distasonis, 8503
# [43] = tested on: S. pyogenes IID 692; test: MIC, antibacterial spectrum (aerobic bacteria); settings: Streptococcus pyogenes, IID692
smiles,measurement,setting,value
"O=C(O)c1cn(C2CC2)c2cc(N3CCNCC3)c(F)cc2c1=O [CPFX, Ciprofloxacin, reference compound]",MIC,[1],0.0125 µg/mL
same,MIC,[2],0.2 µg/mL
same,MIC,[3],0.0125 µg/mL
same,MIC,[4],0.2 µg/mL
same,MIC,[5],0.2 µg/mL
same,MIC,[6],0.05 µg/mL
same,MIC,[7],0.05 µg/mL
same,MIC,[8],0.05 µg/mL
same,MIC,[9],12.5 µg/mL
same,MIC,[10],0.0125 µg/mL
same,MIC,[11],1.56 µg/mL
same,MIC,[12],6.25 µg/mL
same,MIC,[13],0.78 µg/mL
same,MIC,[14],12.5 µg/mL
same,MIC,[15],12.5 µg/mL
same,MIC,[16],0.05 µg/mL
same,MIC,[17],0.2 µg/mL
same,MIC,[18],6.25 µg/mL
same,MIC,[19],0.39 µg/mL
same,MIC,[20],0.78 µg/mL
same,MIC,[21],0.2 µg/mL
same,MIC,[22],0.0125 µg/mL
same,MIC,[23],1.56 µg/mL
same,MIC,[24],0.0125 µg/mL
same,MIC,[25],0.0125 µg/mL
same,MIC,[26],0.39 µg/mL
same,MIC,[27],0.39 µg/mL
same,MIC,[28],3.13 µg/mL
same,MIC,[29],≤ 0.0063 µg/mL
same,MIC,[30],0.2 µg/mL
same,MIC,[31],0.39 µg/mL
same,MIC,[32],0.05 µg/mL
same,MIC,[33],0.78 µg/mL
same,MIC,[34],0.2 µg/mL
same,MIC,[35],0.0125 µg/mL
same,MIC,[36],0.2 µg/mL
same,MIC,[37],0.0125 µg/mL
same,MIC,[38],0.1 µg/mL
same,MIC,[39],0.39 µg/mL
same,MIC,[40],0.39 µg/mL
same,MIC,[41],0.78 µg/mL
same,MIC,[42],6.25 µg/mL
same,MIC,[43],0.78 µg/mL
